Test results taken from US20240207236A1, “COMPOUND FOR PREVENTING OR TREATING DIABETES” (ONCOCROSS CO., LTD., priority 2021, published 2024).

How the values were obtained:
Type in all cases: in vivo, mice (C57BL/6)
[1] = system: animal model of insulin-resistant diabetes; test: Blood insulin (Mouse Insulin ELISA) and HOMA-IR
Method: (§1) STZ (Sigma-aldrich, S0130, 40 mg/kg b.w., in 0.1 M citrate buffer pH 4.5) was intraperitoneally administered to 9-week-old male mice (C57BL/6) once/1 day for 5 days to perform a first disease induction. After 7 weeks of the first induction, a second induction was performed using the same method as the first induction. For 5 days of an STZ administration period for the first induction, 10% sucrose was administered as drinking water. In addition, after 14 days of the second administration, blood sugar was confirmed to confirm the induction rate, and the induced animals were separated into groups. Experimental substances (R)-4-{(R)-1-[7-(3,4,5-trimethoxy-phenyl)-[1,6] naphthyridine-5-yloxy]-ethyl}pyrrolidine-2-one (BI-1002494) and cromolyn (OC-101) were administered orally into the stomach at 10 mL/kg using an oral administration syringe (sonde) before 16:00 daily for 12 weeks at a frequency of 7 days/week at doses shown in Table 1 below, respectively, and dexamethasone was orally administered as a positive control substance.
After the observation period for mice of each group in Example 1 was terminated, all surviving animals were fasted in the same manner as when measuring blood sugar, and then anesthetized by inhaling isoflurane, and blood was collected from the abdominal vena cava through laparotomy. After the blood collection was completed, the veins and arteries were cut under anesthesia and exsanguinated. The collected blood was left at room temperature for 30 minutes or more and then centrifuged at 3,000 rpm for 20 minutes. Thereafter, glucose, blood urea nitrogen (BUN), and creatinine were analyzed using an automated blood biochemistry analyzer (Hitachi 3100, Hitachi Co. Ltd., Japan). Indoxyl sulfate (a substance that was mainly produced in the intestines to cause kidney damage, and a substance that caused end-stage renal failure by advancing kidney function damage in patients with renal failure during hemodialysis) was analyzed using LC MS/MS. In addition, blood insulin was analyzed according to a method represented by a commercial Mouse Insulin ELISA KIT (#AKRIN-011T, Sibayagi Co. Ltd., Japan).

[2] = Body weight of mice in STZ-induced insulin-resistant diabetes model
Method: as §1

[3] = Drinking water intake of mice in STZ-induced insulin-resistant diabetes model; design: unit not given here
Method: as §1

[4] = Feed intake of mice in STZ-induced insulin-resistant diabetes model; design: feed intake: unit not given here
Method: as §1

[5] = system: animal model of insulin-resistant diabetes; test: Blood sugar, tail vein blood, blood sugar meter, 4 h fasting; design: blood sugar, Mean: unit not given here
Method: as §1
Before disease induction, excluding week 9 of administration of experimental substances to mice in each group of Example 1 above, after 2 weeks after the first induction (based on a first administration date), and after 6 weeks and 2 weeks of the second induction (based on the first administration date), blood was collected from the tail vein and blood sugar was measured using a blood sugar meter (Accu-Check, Roche), and fasting was performed for 4 hours from 9:30 a.m. to 1:30 p.m.

[6] = after induction of diabetic disease, 12.5-50 mg/kg

COc1cc(-c2cc3ncccc3c(O[C@H](C)[C@H]3CNC(=O)C3)n2)cc(OC)c1OC [BI-1002494, (R)-4-{(R)-1-[7-(3,4,5-trimethoxy-phenyl)-[1,6]naphthyridine-5-yloxy]-ethyl}pyrrolidine-2-one]
HOMA-IR compared with the disease control group ([1]; 25 mg/kg): statistically significantly reduced | HOMA-IR compared with the disease control group ([1]; 50 mg/kg): statistically significantly reduced | insulin resistance (HOMA-IR), summary [1, 6]: decreased in a dose-dependent manner | body weight, Mean ([2]; 12.5 mg/kg/day oral, week 0): 24 g | body weight, Mean ([2]; 12.5 mg/kg/day oral, week 1): 23.7 g | body weight, Mean ([2]; 12.5 mg/kg/day oral, week 2): 23 g | body weight, Mean ([2]; 12.5 mg/kg/day oral, week 3): 24.1 g | body weight, Mean ([2]; 12.5 mg/kg/day oral, week 4): 24.3 g | body weight compared to the disease control group ([2]; 12.5 mg/kg, after week 5 of administration): statistically significantly increased | body weight, Mean ([2]; 25 mg/kg/day oral, week 0): 23.6 g | body weight, Mean ([2]; 25 mg/kg/day oral, week 1): 23.5 g | body weight, Mean ([2]; 25 mg/kg/day oral, week 2): 23.7 g | body weight, Mean ([2]; 25 mg/kg/day oral, week 3): 23.9 g | body weight, Mean ([2]; 25 mg/kg/day oral, week 4): 23.9 g | body weight, Mean ([2]; 25 mg/kg/day oral, week 5): 24 g | body weight, Mean ([2]; 25 mg/kg/day oral, week 6): 23.9 g | body weight, Mean ([2]; 25 mg/kg/day oral, week 7): 24 g | body weight compared to the disease control group ([2]; 25 mg/kg, after week 8): statistically significantly increased | body weight, Mean ([2]; 50 mg/kg/day oral, week 0): 23.9 g | body weight, Mean ([2]; 50 mg/kg/day oral, week 2): 23.8 g | body weight, Mean ([2]; 50 mg/kg/day oral, week 3): 23.8 g | body weight, Mean ([2]; 50 mg/kg/day oral, week 4): 23.8 g | body weight, Mean ([2]; 50 mg/kg/day oral, week 5): 23.6 g | body weight, Mean ([2]; 50 mg/kg/day oral, week 6): 23.8 g | body weight, Mean ([2]; 50 mg/kg/day oral, week 7): 24 g | body weight compared to the disease control group ([2]; 50 mg/kg, after week 8): statistically significantly increased | drinking water intake, Mean ([3]; 12.5 mg/kg/day oral, week 1): 7.91 | drinking water intake, Mean ([3]; 12.5 mg/kg/day oral, week 2): 7.41 | drinking water intake, Mean ([3]; 12.5 mg/kg/day oral, week 4): 7.08 | drinking water intake, Mean ([3]; 12.5 mg/kg/day oral, week 5): 7.16 | drinking water intake, Mean ([3]; 12.5 mg/kg/day oral, week 6): 7.34 | drinking water intake, Mean ([3]; 12.5 mg/kg/day oral, week 7): 7.24 | drinking water intake, Mean ([3]; 12.5 mg/kg/day oral, week 8): 6.99 | drinking water intake, Mean ([3]; 12.5 mg/kg/day oral, week 9): 7.40 | drinking water intake, Mean ([3]; 25 mg/kg/day oral, week 0): 7.07 | drinking water intake, Mean ([3]; 25 mg/kg/day oral, week 1): 7.62 | drinking water intake, Mean ([3]; 25 mg/kg/day oral, week 3): 7.38 | drinking water intake, Mean ([3]; 25 mg/kg/day oral, week 4): 6.73 | drinking water intake, Mean ([3]; 25 mg/kg/day oral, week 5): 7.19 | drinking water intake, Mean ([3]; 25 mg/kg/day oral, week 6): 7.34 | drinking water intake, Mean ([3]; 25 mg/kg/day oral, week 7): 7.69 | drinking water intake, Mean ([3]; 25 mg/kg/day oral, week 8): 7.43 | drinking water intake, Mean ([3]; 25 mg/kg/day oral, week 9): 7.54 | drinking water intake, Mean ([3]; 25 mg/kg/day oral, week 10): 7.15 | drinking water intake, Mean ([3]; 50 mg/kg/day oral, week 0): 7.27 | drinking water intake, Mean ([3]; 50 mg/kg/day oral, week 1): 7.04 | drinking water intake, Mean ([3]; 50 mg/kg/day oral, week 3): 6.95 | drinking water intake, Mean ([3]; 50 mg/kg/day oral, week 4): 7.13 | drinking water intake, Mean ([3]; 50 mg/kg/day oral, week 5): 6.48 | drinking water intake, Mean ([3]; 50 mg/kg/day oral, week 9): 6.51 | drinking water intake, Mean ([3]; 50 mg/kg/day oral, week 10): 6.22 | feed intake compared to the disease control group ([4]; 12.5 mg/kg, after week 4 of administration): statistically significantly decreased | feed intake ([4]; 25 mg/kg/day oral, week 1): 5.60 | feed intake ([4]; 25 mg/kg/day oral, week 2): 5.58 | feed intake ([4]; 25 mg/kg/day oral, week 3): 5.26 | feed intake ([4]; 25 mg/kg/day oral, week 4): 4.99 | feed intake ([4]; 25 mg/kg/day oral, week 5): 5.15 | feed intake ([4]; 25 mg/kg/day oral, week 7): 5.04 | feed intake ([4]; 25 mg/kg/day oral, week 8): 4.95 | feed intake ([4]; 25 mg/kg/day oral, week 9): 4.62 | feed intake ([4]; 25 mg/kg/day oral, week 10): 4.63 | feed intake compared to the disease control group ([4]; 25 mg/kg, after week 6 of administration): statistically significantly decreased | feed intake ([4]; 50 mg/kg/day oral, week 1): 5.74 | feed intake ([4]; 50 mg/kg/day oral, week 4): 5.14 | feed intake ([4]; 50 mg/kg/day oral, week 7): 5.11 | feed intake ([4]; 50 mg/kg/day oral, week 9): 4.30 | feed intake ([4]; 50 mg/kg/day oral, week 10): 4.14 | feed intake compared to the disease control group ([4]; 50 mg/kg, after week 8 of administration): statistically significantly decreased | blood sugar, Mean ([5]; 12.5 mg/kg/day oral, value column 2 of 6, head prints only weeks 0, 4, 8, 10): 319.5 | blood sugar, Mean ([5]; 12.5 mg/kg/day oral, week 0): 291.1 | blood sugar, Mean ([5]; 25 mg/kg/day oral, value column 2 of 6, head prints only weeks 0, 4, 8, 10): 310.1 | blood sugar, Mean ([5]; 25 mg/kg/day oral, week 0): 301.2 | blood sugar, Mean ([5]; 50 mg/kg/day oral, value column 2 of 6, head prints only weeks 0, 4, 8, 10): 264.5 | blood sugar, Mean ([5]; 50 mg/kg/day oral, week 0): 303.7 | blood sugar compared to the positive control group ([5]; administered group, dose not specified): decreased significantly | blood sugar, summary [5, 6]: decreased in a dose-dependent manner
